Laboratory results as given in patent US8809631B2, “Screening method for selecting plants that show reduced wound-induced surface discolouration and plant and plant parts thus obtained” (Rijk Zwaan Zaadteelt en Zaadhandel B.V., priority 2007, dated 2014).
Entries after “also recorded” stand apart in the source; their conditions may differ.

Columns and labels:
lettuce PPO = assay: L-DOPA leaf disc assay (conversion of L-DOPA into melanin); format: cell-based
Description: In addition to assays which address wound-induced discolouration in a broad sense, the method according to this invention also allows to screen in a more specific manner for mutants which have a reduced PPO activity. A phenotypic assay which is indicative for PPO activity was developed by using leaf discs which were incubated in the presence of 1.5 mM L-DOPA. As a black discolouration became apparent it can be concluded that L-DOPA can readily be converted by the polyphenol oxidising system at the wound surface of lettuce leaves into a black pigment called melanine. L-DOPA is converted by PPO into the reactive L-DOPA-quinone which is converted non-enzymatically via dopachrome and indol quinone into the black melanin.

[1] = treatment of formed dye with reducing agent after the wound response was completed; set-up: species or system lettuce; settings: added after the wound response was completed
Description: As L-cysteine is known to react with o-quinones, which are PPO products, by converting them back into colourless diphenols, the effects of L-cysteine on the pink dye coming from lettuce leaf discs was determined. In parallel the effect of L-cysteine was determined on the melanin formation upon incubation with L-DOPA. Leaf discs were taken and incubated according to the procedures described above. After the wound response was completed, a concentration series of L-cysteine was added to the leaf disc and the change in colour was monitored.

lettuce leaf discs = assay: leaf disc pinking assay (discs between wetted filter papers, 5° C., 7 days); format: cell-based; settings: for effect on output signal of the screen (brown or pink discolouration of the wound surface): FIG. 1 legend; for concentration at which the pink discolouration was completely inhibited: applied during the assay, 5° C., 7 days; for concentration at which the pink discolouration was completely inhibited / effect on pink discolouration (formation of the pink dye): lettuce leaf discs; for effect on pink discolouration (formation of the pink dye): applied during the reaction
Description: One embodiment of this invention is based on the surprising finding that when discs from leaves, in particular lettuce leaves, are taken and incubated between wetted filter papers at 5° C., after approximately 4 days the formation of a pink dye at the edges of the leaf discs becomes apparent. Suitable filter paper is filter paper type 1450 CV, Ref no. 10 313 281 from Schleier & Schuell, Microscience GmbH, Dassel, Germany. Upon further incubation, the signal intensifies and after approximately one week the maximum intensity has been reached. The formation of the pink dye occurs specifically at wound surfaces.
A phenotypic assay was developed in which leaf discolouration of lettuce induced by wounding can readily be assessed. This approach allows young plant screening for discolouration. Leaf discs of 5 mm diameter were taken from young or mature plants and placed between wetted filter papers in a tray. The system was incubated at 5° C. for 7 days. During the incubation a pink dye developed at the wound site of the leaf disc which became clearly visible as a printed circle on the filter paper (FIG. 2).

[2] = tested on: lettuce outer leaf midrib tissue discs; assay: midrib disc browning assay (wetted filter paper, 16° C.); format: cell-based; settings: 10 mM L-cysteine, approximately 72 hours
Description: Lettuce plants were grown to maturity and parts of outer leaves were taken by cutting discs from the rib tissue. The discs were incubated on wetted filter paper at 16° C. After approximately 72 hours, the wound surface had turned brown.

[3] = tested on: field-grown lettuce plant; assay: L-cysteine treatment of leaf discs from field-grown lettuce showing pinking; settings: 1 mM L-cysteine, approximately 30 minutes, room temperature
Description: This is typically observed when plants have been stressed, for example by conditions of severe water logging. The leaf was used to prepare leaf discs which were incubated immediately by 1 mM L-cysteine.

| Structure (SMILES) | effect on the pink dye already formed by lettuce leaf discs [1] | effect on output signal of the screen (brown or pink discolouration of the wound surface) (lettuce leaf discs) | concentration at which the pink discolouration was completely inhibited (lettuce leaf discs) | effect on pink discolouration (formation of the pink dye) (lettuce leaf discs) | further results |
| --- | --- | --- | --- | --- | --- |
| N[C@@H](CS)C(=O)O [L-cysteine] | converted into a colourless compound; also recorded: converting the pink dye back into a colourless compound | completely inhibited | ≥ 0.001% | strongly suppressed the formation of the pink dye | effect on black discolouration (melanin formation from L-DOPA) (lettuce PPO; applied simultaneously with L-DOPA (1 mM L-cysteine elsewhere in the source)): completely inhibited; also recorded: can be inhibited; concentration at which L-DOPA discolouration was completely inhibited (lettuce PPO; applied simultaneously with L-DOPA, lettuce leaf discs): ≥ 1 mM; effect on black melanin already formed in the L-DOPA assay [1]: not affected; effect on browning response of wound surface [2]: completely be inhibited; also recorded: the browning response was inhibited; effect on pink discolouration of field-grown lettuce leaf [3]: the pink discolouration is also eliminated; also recorded: the pink discolouration disappeared |
| CC(C)C[C@H](N)C(=O)O [L-leucine] | – | – | – | did not show any effect | – |
| C[C@H](N)C(=O)O [L-alanine] | – | – | – | did not show any effect | – |
| O=C1O[C@H]([C@@H](O)CO)C(O)=C1O [ascorbic acid] | convert the pink dye into a colourless compound | – | – | – | – |
| O=CC=Cc1ccccc1 [cinnamaldehyde] | – | completely inhibited | ≥ 0.01% | formation of the pink dye was inhibited | – |
| N[C@@H](CCC(=O)N[C@@H](CS)C(=O)NCC(=O)O)C(=O)O [glutathion] | convert the pink dye into a colourless compound | – | – | – | – |
